In paper PMC4815908 (Bioorganic & medicinal chemistry letters, 2015):

System: P. falciparum 3D7 (chloroquine-sensitive)
Assay: in vitro growth inhibition assay, P. falciparum 3D7
Assay type: cell-based
Settings: Plasmodium falciparum, 3D7, read-out: IC50 ± SEM 3D7

**Q.** `[C-]#[N+]C(C)(C)C[C@@H]1C[C@H](C)[C@H]2CC[C@H](C)[C@@]3([N+]#[C-])CCC(=C)[C@@H]1[C@H]23` [compound 1, (−)-8,15-diisocyano-11(20)-amphilectene] was tested. Which IC50 did it give?
**A.** Its IC50 is 1.2 nM.
